According to patent US6472404B1 (priority 2000, dated 2002):

What was measured:
HIV-1 protease = HIV-1 protease (Human immunodeficiency virus type 1 group M subtype B, UniProt P04585); experiment: HIV protease inhibition assay (quenched fluorogenic substrate, fluorescence energy transfer)
Procedure: HIV protease inhibitory activity was assessed using an adaptation of the method of Matayoshi. et al. [Matayoshi E. D. et al (1990).
Crude HIV-1 protease was prepared from E. coli pPTΔN. Cultures were grown at 30° in M9 medium supplemented with 0.2% casamino acids, 100 μg/ml ampicillin and 25 μg/ml thiamine until OD600=0.5-0.6, and the temperature was raised to 42° to induce expression of the protease. After 1.5 hours, the cells were harvested and the pellets stored at −70° until required.
The protease was prepared by lysis of the cells in a French pressure cell followed by precipitation of the enzyme with ammonium sulfate at 30% saturation.
The assay buffer comprised 0.1M sodium acetate pH 4.7, 8 mM EDTA, 0.2 M NaCl.
Tubes were incubated for 2 hours at 37° and the reaction was terminated by the addition of 500 μl of a 2:1 mixture of DMSO:50 mM Tricine pH 8.5. Fluorescence was measured in a fluorescence spectrophotometer, excitation λ=340 nm, emission λ=492 nm.

HIV-HXB2 = experiment: Antiviral assay: protection of HIV-infected MT4 cells from cell death (MTT); type: cell-based; conditions: Human immunodeficiency virus 1, 120 h; MT4 cells infected with HIV-HXB2; 5 days; MTT viability; rounded to nearest whole number
Procedure: Methods 20: 309-321]. The method is based on the ability of compounds to protect HIV-infected T lymphoblastoid cells (MT4 cells) from cell-death mediated by the infection. The endpoint of the assay was calculated as the concentration of compound at which the cell viability of the culture was preserved by 50% (‘50% inhibitory concentration’, IC50). The cell viability of a culture was determined by the uptake of soluble, yellow 3-[4,5-dimethylthiazol-2-yl]-2,5-diphenyltetrazolium bromide (MTT) and its reduction to a purple insoluble formazan salt. After solubilization, spectrophotometric methods were employed to measure the amount of formazan product.
MT4 cells were prepared to be in logarithmic-phase growth and a total of 2×10^6 cells infected with either the wild type or site directed mutant clones of HIV-HXB2 at a multiplicity of approximately 0.0001 infectious units of virus per cell in a total volume of between 200-500 μl. The cells were incubated with virus for one hour at 37° C. then washed in 0.01 M phosphate buffered saline, pH 7.2, and resuspensed in culture medium for incubation in culture with serial dilutions of test compound. The culture medium used was RPMI 1640 without phenol red, supplemented with penicillin, streptomycin, L-glutamine and 10% fetal calf serum (GM10).
Test compounds were prepared as 2 mM solutions in dimethyl sulphoxide (DMSO). Four replicate, serial 2-fold dilutions in GM10 were then prepared and 50 microliter amounts placed in 96-well plates over a final concentration range of […]. Fifty microliters GM10 and 3.75×10^4 infected cells were then added to each well. Control cultures containing no cells (blank), uninfected cells (100% viability; 4 replicates) and infected cells without compound (total virus-mediated cell death; 4 replicates) were also prepared. The cultures were then incubated at 37° C. in a humidified atmosphere of 5% CO2 in air for 5 days.
A fresh solution of 5 mg/mL MTT was prepared in 0.01 M phosphate buffered saline, pH 7.2 and 20 μL added to each culture. The cultures were further incubated as before for 2 hours. They were then mixed by pipetting up and down, and 170 microliters of Triton X-100 in acidified isopropanol (10% v/v Triton X-100 in 1:250 mixture of concentrated HCl in isopropanol) were added and the cultures were mixed again by pipetting up and down. When the formazan deposit was fully solubilized by further mixing, the absorbance (OD) of the cultures was measured at 540 nm and 690 nm wavelength (690 nm readings were used as blanks for artefacts between wells). The percent protection for each treated culture was then calculated from the equation:
OD drug-treated cultures)−(OD untreated virus control cultures) % Protection=100%
(OD uninfected cultures)−(OD untreated virus control cultures)
The IC50 was then obtained from graph plots of percentage protection versus log10 drug concentration.

## CC(C)(C)NC(=O)[C@@H]1C[C@@H]2CCCC[C@@H]2CN1C[C@@H](O)[C@H](Cc1ccccc1)NC(=O)CC(C)(C)S(C)(=O)=O [Example 95, N-tert-Butyl-1,2,3,4,4a(S),5,6,7,8,8a(S)-decahydro-1-[2(R)-hydroxy-3(S)-[3-(methanesulfonyl)butyramido]-4-phenylbutyl]-2(S)-piperazinecarboxamide]
HIV-1 protease
  IC50: 61 nM
HIV-HXB2
  IC50: 250 nM
other
  melting point: 95 to 110 °C
